{
  "source": "patent US6608179B1",
  "about": "“Antibodies, that bind to HIV-2 transmembrane glycoprotein homodimer (gp 80)” (Institut Pasteur, priority 1988, dated 2003)",
  "key": {"HIV-2 infected CEM cells": {"tested_on": "HIV-2 infected CEM cells", "test": "Effect of glucosidase inhibitor on production of viral proteins in HIV-2 infected cells", "type": "cell-based", "details": "castanospermine 1 mM, 16 hr [35S] methionine labeling, culture supernatants", "method": "To confirm that gp80 was produced during the processing of envelope precursor, HIV-2 infected cells were labeled with [^35S] methionine in the absence or presence of the glucosidase inhibitor, castanospermine (Saul et al., 1983). Culture supernatants were then assayed by immunoprecipitation using an HIV-2 positive patient serum which recognizes several viral proteins."}, "HIV-2 infected cells [1]": {"tested_on": "HIV-2 infected cells", "test": "Incorporation of labeled sugars into HIV-2 glycoproteins in infected cells", "type": "cell-based", "details": "[3H] glucosamine, fucose, mannose; data not shown", "source_text": "Extracts from HIV-2 infected cells metabolically labeled with [^3H] glucosamine and [^3H] fucose were immunoprecipitated using mAb 1H8 and anti-gp300 polyclonal antibodies. In accord with the previous results (FIGS. 3-6), anti-gp300 antibodies immunoprecipitated sugar labeled gp300, gp140, gp125, and gp80, whereas mAb 1H8 immunoprecipitated gp300, gp140, and gp80. All these proteins incorporated [^3H] glucosamine, whereas incorporation of [^3H] fucose mainly occurred in gp125 and gp80 (FIG. 7a). In these experiments, the labeling of gp36 with [^3H] glucosamine was observed faintly after a prolonged exposure of the autoradiogram (data not shown; similar to FIG. 1, Rey et al., 1989). The glycoprotein gp80 also can incorporate [^3H] mannose as is the case for gp300, gp140, and gp125 (data not shown).\nFor metabolic labeling of proteins, infected cells were incubated for 16 hours at 37° C. in MEM culture without L-methionine and serum, but supplemented with 200 μCi/ml [^35S] methionine. For metabolic labeling of glycoproteins, infected cells were incubated for 16 hours at 37° C. in MEM culture medium lacking serum and glucose but supplemented with 200 μCi/ml ^3H-Fucose or 200 μCi/ml ^3H-glucosamine."}, "HIV-2 infected cells [2]": {"tested_on": "HIV-2 infected cells", "details": "in the presence of monensin; previous study (Rey et al., 1989); cited from earlier work"}, "[3]": {"target": "T1, binding of mAb 1H8 to gp80 (Human immunodeficiency virus type 2 subtype A, UniProt P04577)", "T1 construct": "cleaved by the cellular protease to give the extracellular glycoprotein gp125 and the transmembrane glycoprotein dimer gp80; endogenous in cells; host or cells: virus pellet from culture medium of HIV-2 infected CEM cells", "T1 sequence (P04577 512-858 limits assumed)": "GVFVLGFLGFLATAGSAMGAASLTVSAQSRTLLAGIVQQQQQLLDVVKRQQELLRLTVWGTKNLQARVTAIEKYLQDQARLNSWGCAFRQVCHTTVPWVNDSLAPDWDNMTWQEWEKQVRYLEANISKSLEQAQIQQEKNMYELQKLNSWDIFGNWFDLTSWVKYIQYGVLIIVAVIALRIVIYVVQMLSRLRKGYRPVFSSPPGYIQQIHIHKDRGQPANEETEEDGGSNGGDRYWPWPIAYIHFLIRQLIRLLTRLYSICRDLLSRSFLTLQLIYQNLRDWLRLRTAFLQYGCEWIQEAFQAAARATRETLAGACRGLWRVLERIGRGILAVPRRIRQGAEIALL", "test": "Peptide blocking of antibody signals in Western blot of HIV-2 virus pellet", "details": "1 μg/ml of peptide p39′", "method": "Extracts from the HIV-2 virus pellets were analyzed by Western blot assay using mAb 1H8 (section mAb) or anti-gp300 polyclonal antibodies (section S). Incubation with each antibody was carried out in the absence (lanes −) or presence (lanes +) of 10 μg of peptide p39′. The results of the autoradiography are shown.\nTo show the specificity of mAb 1H8 reactivity with gp80, a Western blot assay using extracts from HIV-2 virus pellet was carried out. After the transfer of proteins, nitrocellulose sheets were incubated with mAb 1H8 or anti-gp300 polyclonal antibodies in the absence or presence of 1 μg/ml of peptide p39′ (FIG. 5). […] In addition, a signal for gp36 was observed, but only after a prolonged exposure of the autoradiogram. […] These observations confirm that the reactivity of mAb 1H8 should be with the 26 amino acid residue corresponding to the amino acids 579 to 604 in the transmembrane glycoprotein of HIV-2. Consequently, a sequence corresponding to that of peptide p39′ should be present in gp80. The reactivity of anti-gp300 antibodies was not modified by peptide p39′. Therefore, these antibodies should interact with other epitopes than that corresponding to peptide 39′. […]"}},
  "data": [
    {"compound": "O[C@H]1[C@H](O)[C@@H](O)CN2CC[C@H](O)[C@H]12", "note": "[castanospermine]", "values": [
      {"measurement": "production of gp80 and gp125", "setting": "HIV-2 infected CEM cells", "value": "markedly reduced"},
      {"measurement": "production of the major core protein (p26)", "setting": "HIV-2 infected CEM cells", "value": "not significantly affected"}
    ]},
    {"compound": "tunicamycin", "values": [
      {"measurement": "incorporation of labeled sugars in gp80 and other glycoproteins", "setting": "HIV-2 infected cells [1]", "value": "completely blocked"}
    ]},
    {"compound": "CC[C@@]1([C@@H]2O[C@@H]([C@H]3O[C@@](O)(CO)[C@H](C)C[C@@H]3C)C[C@@H]2C)CC[C@H]([C@]2(C)CC[C@]3(C[C@H](O)[C@@H](C)[C@@H]([C@@H](C)[C@@H](OC)[C@H](C)C(=O)O)O3)O2)O1", "note": "[monensin]", "values": [
      {"measurement": "135-kDa protein (gp135) in HIV-2 infected cells", "setting": "HIV-2 infected cells [2]", "value": "accumulated"}
    ]},
    {"compound": "VTAIEKYLQDQARLNSWGCAFRQVCH [peptide p39′]", "values": [
      {"measurement": "effect of peptide on Western blot signals obtained with mAb 1H8", "setting": "[3]", "value": "completely abolished"},
      {"measurement": "effect of peptide on reactivity of anti-gp300 antibodies", "setting": "[3]", "value": "not modified"}
    ]}
  ]
}
